In this test the test system is Macrophages (RAW 264.7). Briefly: Macrophage polarization on the substrate with inhibitors of ROCK, myosin II or actin polymerization. It is filed as cell-based. Particulars: 50 μM Y27632, 10 blebbistatin, 2 μg/mL cytochalasin D; for M1 polarization suppression of macrophages (CD68): M1 medium, 36 hours, bimodal switching "ON" state; for stimulation of robust adhesion (cell area, elongation factor) and expression of M2 polarization (Arg-1 expression): M2 medium, inhibitor treated. The procedure: M1 medium used for assessment of the phenotypic polarization of macrophages was prepared by using a basal medium with 10 ng/mL each of lipopolysaccharide (LPS) and recombinant interferon-gamma (IFN-γ). M2 medium was prepared by using a basal medium with 20 ng/mL each of interleukin-4 (IL4) and interleukin-13 (IL-13). The adhesion-assisted M2 phenotypic polarization of the macrophages was assessed with inhibitors of ROCK (50 μM Y27632), myosin II (10 blebbistatin), or actin polymerization (2 μg/mL of cytochalasin D).
An upper part of FIG. 19 is a confocal immunofluorescent image of CD68, F-actin, and nuclei in macrophages cultured in an M1 polarization medium with and without an inhibitor for ROCK (Y27632), myosin II (blebbistatin), or actin polymerization (cytochalasin D) for 36 hours against and a graph illustrating a cell area, a cell elongation factor, and CD68 fluorescence intensity calculated based on a confocal immunofluorescent experiment result, and a lower part of FIG. 19 is a confocal immunofluorescent image of Arg-1, and F-actin, and nuclei in macrophages cultured in an M2 polarization medium with and without an inhibitor for ROCK (Y27632), myosin II (blebbistatin), or actin polymerization (cytochalasin D) and a graph illustrating a cell area, a cell elongation factor, and Arg-1 fluorescence intensity calculated based on the confocal immunofluorescent experiment result, and a scale bar represents 20 μm.

For the compound `C[C@@H](N)[C@H]1CC[C@H](C(=O)Nc2ccncc2)CC1` [Example Y27632, Y27632], the “M1 polarization suppression of macrophages (CD68)” value (shortened to “M1 polarization suppression”) is “continuously hindered”; the “stimulation of robust adhesion (cell area, elongation factor) and expression of M2 polarization (Arg-1 expression)” value (“stimulation of robust adhesion” for short) is listed as “hindered”.

Consider `Cc1ccc2c(c1)C(=O)C1(O)CCN(c3ccccc3)C1=N2` (stereo not drawn) [blebbistatin], for which the “M1 polarization suppression” value was “continuously hindered”; the “stimulation of robust adhesion” value is recorded as “hindered”.

As to `C=C1[C@@H](C)[C@H]2[C@H](Cc3ccccc3)NC(=O)[C@]23[C@H](OC(C)=O)/C=C/[C@@](C)(O)C(=O)[C@@H](C)C/C=C/[C@H]3[C@@H]1O` [cytochalasin D], the “M1 polarization suppression” value is “continuously hindered”; the “stimulation of robust adhesion” value is on record as “hindered”.

The values above are taken from US12161762B2, “Nanohelix-substrate complex for controlling macrophage behavior, preparation method thereof, and method of controlling adhesion and polarization of macrophage by using the same” (Korea University Research and Business Foundation, priority 2020, dated 2024).
